Laboratory results published in article PMC10006169, “A phase I trial of LXS196, a protein kinase C (PKC) inhibitor, for metastatic uveal melanoma” (British Journal of Cancer, 2023).

Tested on: patients with MUM
Experiment: Adverse events regardless of study drug relationship
Assay type: in vivo, human
Procedure: Routine safety assessments, including laboratory assessments, physical examinations, vital signs and electrocardiograms (ECGs), were conducted at regular intervals throughout the study and more frequently as needed following patient assessment by the treating physician. Adverse events (AEs) were assessed continuously according to the National Cancer Institute Common Terminology Criteria for Adverse Events (NCI-CTCAE) v4.03.

SMILES: CC1(N)CCN(c2cccnc2NC(=O)c2nc(-c3ncccc3C(F)(F)F)cnc2N)CC1 [LXS196]
- ALT increased, all grades (500 mg QD): 3 (27.3) n (%)
- ALT increased, grade ≥3 (500 mg QD): 1 (9.1) n (%)
- AST increased, all grades (500 mg QD): 4 (36.4) n (%)
- AST increased, grade ≥3 (500 mg QD): 1 (9.1) n (%)
- Abdominal pain upper, all grades (500 mg QD): 2 (18.2) n (%)
- Abdominal pain upper, grade ≥3 (500 mg QD): 0 n (%)
- Asthenia, all grades (500 mg QD): 4 (36.4) n (%)
- Asthenia, grade ≥3 (500 mg QD): 0 n (%)
- Blood creatinine increased, all grades (500 mg QD): 0 n (%)
- Blood creatinine increased, grade ≥3 (500 mg QD): 0 n (%)
- Constipation, all grades (500 mg QD): 2 (18.2) n (%)
- Constipation, grade ≥3 (500 mg QD): 0 n (%)
- Decreased appetite, all grades (500 mg QD): 4 (36.4) n (%)
- Decreased appetite, grade ≥3 (500 mg QD): 0 n (%)
- Dermatitis acneiform, all grades (500 mg QD): 1 (9.1) n (%)
- Dermatitis acneiform, grade ≥3 (500 mg QD): 0 n (%)
- Diarrhoea, all grades (500 mg QD): 5 (45.5) n (%)
- Diarrhoea, grade ≥3 (500 mg QD): 0 n (%)
- Dry skin, all grades (500 mg QD): 1 (9.1) n (%)
- Dry skin, grade ≥3 (500 mg QD): 0 n (%)
- Fatigue, all grades (500 mg QD): 1 (9.1) n (%)
- Fatigue, grade ≥3 (500 mg QD): 0 n (%)
- Hypotension, all grades (500 mg QD): 4 (36.4) n (%)
- Hypotension, grade ≥3 (500 mg QD): 3 (27.3) n (%)
- Nasopharyngitis, all grades (500 mg QD): 0 n (%)
- Nasopharyngitis, grade ≥3 (500 mg QD): 0 n (%)
- Nausea, all grades (500 mg QD): 8 (72.7) n (%)
- Nausea, grade ≥3 (500 mg QD): 0 n (%)
- Neutropenia, all grades (500 mg QD): 2 (18.2) n (%)
- Neutropenia, grade ≥3 (500 mg QD): 1 (9.1) n (%)
- Oedema peripheral, all grades (500 mg QD): 1 (9.1) n (%)
- Oedema peripheral, grade ≥3 (500 mg QD): 0 n (%)
- Patients with ≥1 AE, all grades (500 mg QD): 10 (90.9) n (%)
- Patients with ≥1 AE, grade ≥3 (500 mg QD): 4 (36.4) n (%)
- Rash, all grades (500 mg QD): 0 n (%)
- Rash, grade ≥3 (500 mg QD): 0 n (%)
- Vomiting, all grades (500 mg QD): 5 (45.5) n (%)
- Vomiting, grade ≥3 (500 mg QD): 0 n (%)
- ALT increased, all grades (800 mg QD): 0 n (%)
- ALT increased, grade ≥3 (800 mg QD): 0 n (%)
- AST increased, all grades (800 mg QD): 0 n (%)
- AST increased, grade ≥3 (800 mg QD): 0 n (%)
- Abdominal pain upper, all grades (800 mg QD): 0 n (%)
- Abdominal pain upper, grade ≥3 (800 mg QD): 0 n (%)
- Asthenia, all grades (800 mg QD): 0 n (%)
- Asthenia, grade ≥3 (800 mg QD): 0 n (%)
- Blood creatinine increased, all grades (800 mg QD): 0 n (%)
- Blood creatinine increased, grade ≥3 (800 mg QD): 0 n (%)
- Constipation, all grades (800 mg QD): 0 n (%)
- Constipation, grade ≥3 (800 mg QD): 0 n (%)
- Decreased appetite, all grades (800 mg QD): 0 n (%)
- Decreased appetite, grade ≥3 (800 mg QD): 0 n (%)
- Dermatitis acneiform, all grades (800 mg QD): 0 n (%)
- Dermatitis acneiform, grade ≥3 (800 mg QD): 0 n (%)
- Diarrhoea, all grades (800 mg QD): 1 (100) n (%)
- Diarrhoea, grade ≥3 (800 mg QD): 0 n (%)
- Dry skin, all grades (800 mg QD): 0 n (%)
- Dry skin, grade ≥3 (800 mg QD): 0 n (%)
- Fatigue, all grades (800 mg QD): 0 n (%)
- Fatigue, grade ≥3 (800 mg QD): 0 n (%)
- Hypotension, all grades (800 mg QD): 1 (100) n (%)
- Hypotension, grade ≥3 (800 mg QD): 1 (100) n (%)
- Nasopharyngitis, all grades (800 mg QD): 0 n (%)
- Nasopharyngitis, grade ≥3 (800 mg QD): 0 n (%)
- Nausea, all grades (800 mg QD): 1 (100) n (%)
- Nausea, grade ≥3 (800 mg QD): 0 n (%)
- Neutropenia, all grades (800 mg QD): 0 n (%)
- Neutropenia, grade ≥3 (800 mg QD): 0 n (%)
- Oedema peripheral, all grades (800 mg QD): 0 n (%)
- Oedema peripheral, grade ≥3 (800 mg QD): 0 n (%)
- Patients with ≥1 AE, all grades (800 mg QD): 1 (100) n (%)
- Patients with ≥1 AE, grade ≥3 (800 mg QD): 1 (100) n (%)
- Rash, all grades (800 mg QD): 0 n (%)
- Rash, grade ≥3 (800 mg QD): 0 n (%)
- Vomiting, all grades (800 mg QD): 0 n (%)
- Vomiting, grade ≥3 (800 mg QD): 0 n (%)
- ALT increased, all grades (1000 mg QD): 1 (25.0) n (%)
- ALT increased, grade ≥3 (1000 mg QD): 0 n (%)
- AST increased, all grades (1000 mg QD): 0 n (%)
- AST increased, grade ≥3 (1000 mg QD): 0 n (%)
- Abdominal pain upper, all grades (1000 mg QD): 0 n (%)
- Abdominal pain upper, grade ≥3 (1000 mg QD): 0 n (%)
- Asthenia, all grades (1000 mg QD): 0 n (%)
- Asthenia, grade ≥3 (1000 mg QD): 0 n (%)
- Blood creatinine increased, all grades (1000 mg QD): 0 n (%)
- Blood creatinine increased, grade ≥3 (1000 mg QD): 0 n (%)
- Constipation, all grades (1000 mg QD): 0 n (%)
- Constipation, grade ≥3 (1000 mg QD): 0 n (%)
- Decreased appetite, all grades (1000 mg QD): 0 n (%)
- Decreased appetite, grade ≥3 (1000 mg QD): 0 n (%)
- Dermatitis acneiform, all grades (1000 mg QD): 0 n (%)
- Dermatitis acneiform, grade ≥3 (1000 mg QD): 0 n (%)
- Diarrhoea, all grades (1000 mg QD): 4 (100) n (%)
- Diarrhoea, grade ≥3 (1000 mg QD): 0 n (%)
- Dry skin, all grades (1000 mg QD): 1 (25.0) n (%)
- Dry skin, grade ≥3 (1000 mg QD): 0 n (%)
- Fatigue, all grades (1000 mg QD): 3 (75.0) n (%)
- Fatigue, grade ≥3 (1000 mg QD): 0 n (%)
- Hypotension, all grades (1000 mg QD): 2 (50.0) n (%)
- Hypotension, grade ≥3 (1000 mg QD): 1 (25.0) n (%)
- Nasopharyngitis, all grades (1000 mg QD): 1 (25.0) n (%)
- Nasopharyngitis, grade ≥3 (1000 mg QD): 0 n (%)
- Nausea, all grades (1000 mg QD): 4 (100) n (%)
- Nausea, grade ≥3 (1000 mg QD): 0 n (%)
- Neutropenia, all grades (1000 mg QD): 0 n (%)
- Neutropenia, grade ≥3 (1000 mg QD): 0 n (%)
- Oedema peripheral, all grades (1000 mg QD): 0 n (%)
- Oedema peripheral, grade ≥3 (1000 mg QD): 0 n (%)
- Patients with ≥1 AE, all grades (1000 mg QD): 4 (100) n (%)
- Patients with ≥1 AE, grade ≥3 (1000 mg QD): 2 (50.0) n (%)
- Rash, all grades (1000 mg QD): 0 n (%)
- Rash, grade ≥3 (1000 mg QD): 0 n (%)
- Vomiting, all grades (1000 mg QD): 0 n (%)
- Vomiting, grade ≥3 (1000 mg QD): 0 n (%)
